≈ marks a conversion by molar mass, not a printed value.

The data set in a line: Aqueous solubility determination (Millipore Multiscreen solubility filter plate, UV/vis). To be noted: kinetic from dmso stock; Universal Aqueous Buffer pH 7.4, 90 minutes at room temperature. The format is physicochemical. The procedure:
Aqueous Solubility Determination. The following procedure was used to obtain the aqueous solubility results summarized in Example 4. Step 1. Determination of optimal UV/vis wavelengths and generation of standard curves for a compound of interest: • (1) For eight standard calibration curves (one plate), prepare 34 mL of 50:50 (v:v) universal buffer:acetonitrile in a 50 mL tube. • (2) Using a multichannel pipet, dispense (in μL) the buffer:acetonitrile in a deep well plate as follows:
• (3) Using a multichannel pipet, dispense DMSO into the same plate as follows:
• (4) Add 10 mM compound in DMSO into the plates as follows:
• (5) Mix columns 1 and 2 by pipetting each up and down 10 times. Mix columns 3 and 4 by pipetting up and down 10 times. Serially dilute as follows (pipet up and down 10 times after each transfer):
• (6) Cover plate with lid and shake (200-300 rpm) at room temperature for 20 minutes. • (7) Mix all wells by pipetting up and down 10 times. • (8) Transfer 120 μL from each well to a UV transparent plate. Cover and shake for 3-5 minutes. Remove any bubbles in the wells using a pipet. • (9) Read from 220 nm to 500 nm at 10 nm increments on a spectrophotometer (e.g., SpectraMax®).
Step 2. Compound Solubility Testing Procedures using the Millipore™ Multiscreen® Solubility Filter Plate. […]
Solubility Protocol: • (a) Add 285 μL of Universal Aqueous Buffer to desired wells of the Millipore™ Multiscreen® Solubility filter plate. • (b) Add 15 μL of 10 mM compound in DMSO to the appropriate wells. […] Remove any bubbles with a pipet. • (i) Measure the absorbance of each well in the plate on the spectrophotometer (UV/vis) at the desired wavelength. For compounds in a plate with different absorbance peaks, set the spectrophotometer to read a spectrum (e.g., from 220 nm to 460 nm). • (j) Identify concentration using measured absorbance for each compound and the predetermined standard curve (see Step 1).
As for `CC1(C)CC[C@]2(C(=O)NCC(F)(F)F)CC[C@]3(C)[C@H](C(=O)C=C4[C@@]5(C)C=C(C#N)C(=O)C(C)(C)[C@@H]5CC[C@]43C)[C@@H]2C1` [Compound 63102, reference compound], the solubility at 90 min came out at 0.06 µM (≈ 0.0344 µg/mL).
In the case of `CC1(C)CC[C@]2(N)CC[C@]3(C)[C@H](C(=O)C=C4[C@@]5(C)C=C(C#N)C(=O)C(C)(C)[C@@H]5CC[C@]43C)[C@@H]2C1` [Compound 63198], the concentration in solution (solubility at 90 min) came to 164 µM (≈ 75.7 µg/mL).
As to `COC(=O)[C@]12CCC(C)(C)C[C@H]1[C@H]1C(=O)C[C@@H]3[C@@]4(C)C=C(C#N)C(=O)C(C)(C)[C@@H]4CC[C@@]3(C)[C@]1(C)CC2` [Compound 63219], the solubility at 90 min came to 13.6 µM (≈ 6.89 µg/mL).

For orientation: solubility means the concentration that dissolves in the medium under given conditions. A high value points to a readily soluble substance.

Values taken from patent US20120238767A1, “ANTIOXIDANT INFLAMMATION MODULATORS: NOVEL DERIVATIVES OF OLEANOLIC ACID” (priority 2008, published 2012).
